Data from ChEMBL document CHEMBL4354798, “Synthetic Approaches to the New Drugs Approved During 2017” (J Med Chem, 2019).

What was measured:
[1] = Antitumour activity in human FLT3 positive AML patient assessed as increase in survival time at 50 mg, po bid for 14 days co-treated with CTX relative to control; assay type: functional
[2] = Half life in human Plasma; assay type: ADME, cell-free
[3] = Half life in human infected with HIV 20 to 40 mg, po for 7 days; assay type: ADME, organism-based; conditions: in vivo

SMILES | half-life [3] | other results
CO[C@@H]1[C@H](N(C)C(=O)c2ccccc2)C[C@H]2O[C@]1(C)n1c3ccccc3c3c4c(c5c6ccccc6n2c5c31)C(=O)NC4 [MIDOSTAURIN] |  | Activity [1]: 80%
Cc1cccc(C)c1N(CC(=O)Nc1ccc(-c2ncon2)cc1)C(=O)C1CCS(=O)(=O)CC1 [AMENAMEVIR] |  | half-life [2]: 8 h
CCC(=O)[N-]S(=O)(=O)c1ccc(NC(=O)Cc2ccc(Br)c(Oc3cc(Cl)cc(C#N)c3)c2F)c(Cl)c1.[Na+] [ELSULFAVIRINE SODIUM] | 2 h | 
N#Cc1cc(Cl)cc(Oc2c(Br)ccc(CC(=O)Nc3ccc(S(N)(=O)=O)cc3Cl)c2F)c1 [DEPULFAVIRINE] | > 120 h | 
